Tests used:
Experiment in all cases: relative viability (nuclei count vs DMSO), 5 days (fraction); higher = more cells survive
NCI-H1666 = test system: NCI-H1666
How it was run: (§1)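 The day after seeding in 1536-well plates, lung cancer cell lines were treated by pin tool with a single drug, or with a fixed anchor-drug dose together with five library-drug doses (not always all listed) in √10 steps. After 5 days, a combined fix-and-stain solution (final 0.05% Triton X-100, 1% formaldehyde, 1 ug/ml Hoechst) was added. Nuclei counted on 4× images gave relative viability as treated counts over vehicle counts, reported as the median of duplicate plates.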

NCI-H2087 = test system: NCI-H2087
How it was run: as §1

NCI-H441 = test system: NCI-H441
How it was run: as §1

NCI-H1355 = test system: NCI-H1355
How it was run: as §1

NCI-H2405 = test system: NCI-H2405
How it was run: as §1

PC-14 = test system: PC-14
How it was run: as §1

NCI-H2023 = test system: NCI-H2023
How it was run: as §1

LK-2 = test system: LK-2
How it was run: as §1

NCI-H2126 = test system: NCI-H2126
How it was run: as §1

HOP-62 = test system: HOP-62
How it was run: as §1

SW 1573 = test system: SW 1573
How it was run: as §1

NCI-H322M = test system: NCI-H322M
How it was run: as §1

COR-L23 = test system: COR-L23
How it was run: as §1

ChaGo-K-1 = test system: ChaGo-K-1
How it was run: as §1

LCLC-103H = test system: LCLC-103H
How it was run: as §1

NCI-H460 = test system: NCI-H460
How it was run: as §1

NCI-H1975 = test system: NCI-H1975
How it was run: as §1

HCC-44 = test system: HCC-44
How it was run: as §1

EPLC-272H = test system: EPLC-272H
How it was run: as §1

NCI-H2228 = test system: NCI-H2228
How it was run: as §1

NCI-H596 = test system: NCI-H596
How it was run: as §1

NCI-H3122 = test system: NCI-H3122
How it was run: as §1

SW 900 = test system: SW 900
How it was run: as §1

EMC-BAC-2 = test system: EMC-BAC-2
How it was run: as §1

NCI-H1944 = test system: NCI-H1944
How it was run: as §1

Nc1cccc2c1CN(C1CCC(=O)NC1=O)C2=O (stereo not given) [Lenalidomide] + CCNC(=O)c1noc(-c2cc(C(C)C)c(O)cc2O)c1-c1ccc(CN2CCOCC2)cc1 [Luminespib] (partner 0.01 µM)
relative viability (NCI-H1666; first compound 0.253 µM): 0.977
relative viability (NCI-H1666; first compound 2.53 µM): 1.02
relative viability (NCI-H1666; first compound 8 µM): 1.04
relative viability (NCI-H2087; first compound 0.253 µM): 0.233
relative viability (NCI-H2087; first compound 0.8 µM): 0.156
relative viability (NCI-H2087; first compound 2.53 µM): 0.14
relative viability (NCI-H2087; first compound 8 µM): 0.169
relative viability (NCI-H441; first compound 0.253 µM): 0.293
relative viability (NCI-H441; first compound 0.8 µM): 0.388
relative viability (NCI-H441; first compound 2.53 µM): 0.307
relative viability (NCI-H441; first compound 8 µM): 0.285
relative viability (NCI-H1355; first compound 0.253 µM): 0.651
relative viability (NCI-H1355; first compound 2.53 µM): 0.812
relative viability (NCI-H1355; first compound 8 µM): 0.558
relative viability (NCI-H2405; first compound 0.253 µM): 0.665
relative viability (NCI-H2405; first compound 0.8 µM): 0.76
relative viability (NCI-H2405; first compound 2.53 µM): 0.757
relative viability (NCI-H2405; first compound 8 µM): 0.644
relative viability (PC-14; first compound 0.253 µM): 0.152
relative viability (PC-14; first compound 0.8 µM): 0.191
relative viability (PC-14; first compound 2.53 µM): 0.151
relative viability (PC-14; first compound 8 µM): 0.133
relative viability (NCI-H2023; first compound 0.253 µM): 0.869
relative viability (NCI-H2023; first compound 0.8 µM): 0.915
relative viability (NCI-H2023; first compound 2.53 µM): 0.685
relative viability (NCI-H2023; first compound 8 µM): 0.824
relative viability (LK-2; first compound 0.253 µM): 0.195
relative viability (LK-2; first compound 0.8 µM): 0.179
relative viability (LK-2; first compound 2.53 µM): 0.173
relative viability (LK-2; first compound 8 µM): 0.193
relative viability (NCI-H2126; first compound 0.253 µM): 0.915
relative viability (NCI-H2126; first compound 0.8 µM): 0.935
relative viability (NCI-H2126; first compound 2.53 µM): 0.996
relative viability (NCI-H2126; first compound 8 µM): 0.871
relative viability (HOP-62; first compound 0.253 µM): 0.961
relative viability (HOP-62; first compound 0.8 µM): 0.843
relative viability (HOP-62; first compound 2.53 µM): 0.899
relative viability (HOP-62; first compound 8 µM): 0.938
relative viability (SW 1573; first compound 0.253 µM): 0.538
relative viability (SW 1573; first compound 0.8 µM): 0.198
relative viability (SW 1573; first compound 2.53 µM): 0.162
relative viability (SW 1573; first compound 8 µM): 0.366
relative viability (NCI-H322M; first compound 0.253 µM): 0.81
relative viability (NCI-H322M; first compound 0.8 µM): 0.982
relative viability (NCI-H322M; first compound 2.53 µM): 1.05
relative viability (NCI-H322M; first compound 8 µM): 1.01
relative viability (COR-L23; first compound 0.253 µM): 0.683
relative viability (COR-L23; first compound 0.8 µM): 0.766
relative viability (COR-L23; first compound 2.53 µM): 0.735
relative viability (COR-L23; first compound 8 µM): 0.758
relative viability (ChaGo-K-1; first compound 0.253 µM): 0.649
relative viability (ChaGo-K-1; first compound 0.8 µM): 0.506
relative viability (ChaGo-K-1; first compound 2.53 µM): 0.788
relative viability (ChaGo-K-1; first compound 8 µM): 0.541
relative viability (LCLC-103H; first compound 0.253 µM): 1.02
relative viability (LCLC-103H; first compound 0.8 µM): 0.958
relative viability (LCLC-103H; first compound 2.53 µM): 1.17
relative viability (LCLC-103H; first compound 8 µM): 0.922
relative viability (NCI-H460; first compound 0.253 µM): 0.0318
relative viability (NCI-H460; first compound 0.8 µM): 0.0303
relative viability (NCI-H460; first compound 2.53 µM): 0.035
relative viability (NCI-H460; first compound 8 µM): 0.0323
relative viability (NCI-H1975; first compound 0.253 µM): 0.194
relative viability (NCI-H1975; first compound 0.8 µM): 0.235
relative viability (NCI-H1975; first compound 2.53 µM): 0.251
relative viability (NCI-H1975; first compound 8 µM): 0.196
relative viability (HCC-44; first compound 0.253 µM): 0.988
relative viability (HCC-44; first compound 2.53 µM): 1.4
relative viability (HCC-44; first compound 8 µM): 1.23
relative viability (EPLC-272H; first compound 0.253 µM): 0.341
relative viability (EPLC-272H; first compound 0.8 µM): 0.259
relative viability (EPLC-272H; first compound 2.53 µM): 0.276
relative viability (EPLC-272H; first compound 8 µM): 0.204
relative viability (NCI-H2228; first compound 0.253 µM): 0.156
relative viability (NCI-H2228; first compound 0.8 µM): 0.103
relative viability (NCI-H2228; first compound 2.53 µM): 0.115
relative viability (NCI-H2228; first compound 8 µM): 0.189
relative viability (NCI-H596; first compound 0.253 µM): 0.967
relative viability (NCI-H596; first compound 2.53 µM): 1.29
relative viability (NCI-H596; first compound 8 µM): 0.985
relative viability (NCI-H3122; first compound 0.253 µM): 0.0887
relative viability (NCI-H3122; first compound 0.8 µM): 0.0863
relative viability (NCI-H3122; first compound 2.53 µM): 0.0693
relative viability (NCI-H3122; first compound 8 µM): 0.102
relative viability (SW 900; first compound 0.253 µM): 0.195
relative viability (SW 900; first compound 2.53 µM): 0.189
relative viability (SW 900; first compound 8 µM): 0.183
relative viability (EMC-BAC-2; first compound 0.253 µM): 1.22
relative viability (EMC-BAC-2; first compound 0.8 µM): 1.1
relative viability (EMC-BAC-2; first compound 2.53 µM): 1.23
relative viability (EMC-BAC-2; first compound 8 µM): 1.11
relative viability (NCI-H1944; first compound 0.253 µM): 0.675
relative viability (NCI-H1944; first compound 0.8 µM): 0.777
relative viability (NCI-H1944; first compound 2.53 µM): 0.871
relative viability (NCI-H1944; first compound 8 µM): 0.502
